Key:
HERG = HERG (Homo sapiens, UniProt Q12809); assay: HERG ionworks; type: cell-based
[1] = Determination of brain to plasma ratio in rat; type: in vivo; conditions: female Sprague Dawley rats, read-out: Brain/Plasma Ratio of compound in Rat
Description: Brain to plasma ratios are estimated in female Sprague Dawley rats. The compound is dissolved in water or another appropriate vehicle. For determination of brain to plasma ratio the compound is administrated as a subcutaneous, or an intravenous bolus injection, or an intravenous infusion, or an oral administration. At a predetermined time point after the administration a blood sample is taken with cardiac puncture. The rat is terminated by cutting the heart open, and the brain is immediately retained. The blood samples are collected in heparinized tubes and centrifuged within 30 minutes, in order to separate the plasma from the blood cells. The plasma is transferred to 96-well plates and stored at −20° C. until analysis. The brains are divided in half, and each half is placed in a pre-tarred tube and stored at −20° C. until analysis. Prior to the analysis, the brain samples are thawed and 3 mL/g brain tissue of distilled water is added to the tubes. The brain samples are sonicated in an ice bath until the samples are homogenized. Both brain and plasma samples are precipitated with acetonitrile. After centrifugation, the supernatant is diluted with 0.2% formic acid. Analysis is performed on a short reversed-phase HPLC column with rapid gradient elution and MSMS detection using a triple quadrupole instrument with electrospray ionisation and Selected Reaction Monitoring (SRM) acquisition. Liquid-liquid extraction may be used as an alternative sample clean-up. The samples are extracted, by shaking, to an organic solvent after addition of a suitable buffer. An aliquot of the organic layer is transferred to a new vial and evaporated to dryness under a stream of nitrogen. After reconstitution of the residuals the samples are ready for injection onto the HPLC column.

[2] = Determination of in vitro stability in human liver microsomes (CLint); type: in vitro ADME; conditions: pH 7.4, 0.5 mg/mL protein, 1.0 μmol/L compound, NADPH
Description: Rat liver microsomes are prepared from Sprague-Dawley rats liver samples. Human liver microsomes are either prepared from human liver samples or acquired from BD Gentest. The compounds are incubated at 37° C. at a total microsome protein concentration of 0.5 mg/mL in a 0.1 mol/L potassium phosphate buffer at pH 7.4, in the presence of the cofactor, NADPH (1.0 mmol/L). The initial concentration of compound is 1.0 μmol/L. Samples are taken for analysis at 5 time points, 0, 7, 15, 20 and 30 minutes after the start of the incubation. The enzymatic activity in the collected sample is immediately stopped by adding a 3.5 times volume of acetonitrile. The concentration of compound remaining in each of the collected samples is determined by means of LC-MS. The elimination rate constant (k) of the mGluR5 inhibitor is calculated as the slope of the plot of In[mGluR5 inhibitor] against incubation time (minutes). The elimination rate constant is then used to calculate the half-life (T ½) of the mGluR5 inhibitor, which is subsequently used to calculate the intrinsic clearance (CLint) of the mGluR5 inhibitor in liver microsomes as: CLint.=(ln 2×incubation volume)/(T ½×protein concentration)=μl/min/mg

human mGluR5d = molecular target: T1, human mGluR5d (Homo sapiens, UniProt P41594); assay: FLIPR assay, functional assessment of mGluR5 antagonism (intracellular calcium mobilization); type: cell-based; conditions: cells expressing human mGluR5d; read-out: FLIPR hmGluR5d
T1 construct: expressed in transfected cells
T1 sequence (P41594 21-942 isoform P41594-3 limits assumed): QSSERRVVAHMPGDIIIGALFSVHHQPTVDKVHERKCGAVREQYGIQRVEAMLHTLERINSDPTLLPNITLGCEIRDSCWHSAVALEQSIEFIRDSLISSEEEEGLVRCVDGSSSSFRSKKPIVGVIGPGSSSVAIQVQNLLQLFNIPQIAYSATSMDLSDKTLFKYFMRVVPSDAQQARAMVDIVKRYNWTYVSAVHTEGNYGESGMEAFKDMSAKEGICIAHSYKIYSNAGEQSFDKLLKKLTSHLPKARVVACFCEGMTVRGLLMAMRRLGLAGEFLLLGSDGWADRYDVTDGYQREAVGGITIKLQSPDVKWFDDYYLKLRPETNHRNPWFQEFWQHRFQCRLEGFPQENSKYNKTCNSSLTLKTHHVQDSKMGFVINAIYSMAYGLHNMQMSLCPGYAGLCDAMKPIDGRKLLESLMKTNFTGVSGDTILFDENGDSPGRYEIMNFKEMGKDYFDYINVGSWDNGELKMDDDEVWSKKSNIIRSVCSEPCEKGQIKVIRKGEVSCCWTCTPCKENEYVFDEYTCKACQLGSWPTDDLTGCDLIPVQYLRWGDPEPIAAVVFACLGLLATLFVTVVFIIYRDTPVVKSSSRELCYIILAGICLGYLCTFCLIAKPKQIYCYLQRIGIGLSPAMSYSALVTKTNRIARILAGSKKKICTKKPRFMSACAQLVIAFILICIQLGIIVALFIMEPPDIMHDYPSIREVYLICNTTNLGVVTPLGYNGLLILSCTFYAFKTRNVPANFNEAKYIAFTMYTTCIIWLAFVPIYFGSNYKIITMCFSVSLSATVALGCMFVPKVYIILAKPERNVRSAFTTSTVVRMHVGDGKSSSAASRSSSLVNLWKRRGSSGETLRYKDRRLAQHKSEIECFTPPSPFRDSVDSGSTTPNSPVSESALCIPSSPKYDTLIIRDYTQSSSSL
From the text: Biological Evaluation Functional Assessment of mGluR5 Antagonism in Cell Lines Expressing mGluR5D
The properties of the compounds of the invention can be analyzed using standard assays for pharmacological activity. Examples of glutamate receptor assays are well known in the art as described in for example Aramori et al., Neuron 8:757 (1992), Tanabe et al., Neuron 8:169 (1992), Miller et al., J. Neuroscience 15: 6103 (1995), Balazs, et al., J. Neurochemistry 69:151 (1997). The methodology described in these publications is incorporated herein by reference. Conveniently, the compounds of the invention can be studied by means of an assay (FLIPR) that measures the mobilization of intracellular calcium, [Ca^2+]i in cells expressing mGluR5 or another assay (IP3) that measures inositol phosphate turnover.
Cells expressing human mGluR5d as described in WO97/05252 are seeded at a density of 100,000 cells per well on collagen coated clear bottom 96-well plates with black sides and experiments are done 24 h following seeding. All assays are done in a buffer containing 127 mM NaCl, 5 mM KCl, 2 mM MgCl2, 0.7 mM NaH2PO4, 2 mM CaCl2, 0.422 mg/mL NaHCO3, 2.4 mg/mL HEPES, 1.8 mg/mL glucose and 1 mg/mL BSA Fraction IV (pH 7.4). Cell cultures in the 96-well plates are loaded for 60 minutes in the above mentioned buffer containing 4 μM of the acetoxymethyl ester form of the fluorescent calcium indicator fluo-3 (Molecular Probes, Eugene, Oreg.) in 0.01% pluronic acid (a proprietary, non-ionic surfactant polyol—CAS Number 9003-11-6). Following the loading period the fluo-3 buffer is removed and replaced with fresh assay buffer. FLIPR experiments are done using a laser setting of 0.800 W and a 0.4 second CCD camera shutter speed with excitation and emission wavelengths of 488 nm and 562 nm, respectively. Each experiment is initiated with 160 μl of buffer present in each well of the cell plate. A 40 μl addition from the antagonist plate was followed by a 50 μL addition from the agonist plate. A 30 minute interval separates the antagonist and agonist additions. The fluorescence signal is sampled 50 times at 1 second intervals followed by 3 samples at 5 second intervals immediately after each of the two additions. Responses are measured as the difference between the peak height of the response to agonist, less the background fluorescence within the sample period. IC50 determinations are made using a linear least squares fitting program.

Chain of HERG (Q12809 whole entry): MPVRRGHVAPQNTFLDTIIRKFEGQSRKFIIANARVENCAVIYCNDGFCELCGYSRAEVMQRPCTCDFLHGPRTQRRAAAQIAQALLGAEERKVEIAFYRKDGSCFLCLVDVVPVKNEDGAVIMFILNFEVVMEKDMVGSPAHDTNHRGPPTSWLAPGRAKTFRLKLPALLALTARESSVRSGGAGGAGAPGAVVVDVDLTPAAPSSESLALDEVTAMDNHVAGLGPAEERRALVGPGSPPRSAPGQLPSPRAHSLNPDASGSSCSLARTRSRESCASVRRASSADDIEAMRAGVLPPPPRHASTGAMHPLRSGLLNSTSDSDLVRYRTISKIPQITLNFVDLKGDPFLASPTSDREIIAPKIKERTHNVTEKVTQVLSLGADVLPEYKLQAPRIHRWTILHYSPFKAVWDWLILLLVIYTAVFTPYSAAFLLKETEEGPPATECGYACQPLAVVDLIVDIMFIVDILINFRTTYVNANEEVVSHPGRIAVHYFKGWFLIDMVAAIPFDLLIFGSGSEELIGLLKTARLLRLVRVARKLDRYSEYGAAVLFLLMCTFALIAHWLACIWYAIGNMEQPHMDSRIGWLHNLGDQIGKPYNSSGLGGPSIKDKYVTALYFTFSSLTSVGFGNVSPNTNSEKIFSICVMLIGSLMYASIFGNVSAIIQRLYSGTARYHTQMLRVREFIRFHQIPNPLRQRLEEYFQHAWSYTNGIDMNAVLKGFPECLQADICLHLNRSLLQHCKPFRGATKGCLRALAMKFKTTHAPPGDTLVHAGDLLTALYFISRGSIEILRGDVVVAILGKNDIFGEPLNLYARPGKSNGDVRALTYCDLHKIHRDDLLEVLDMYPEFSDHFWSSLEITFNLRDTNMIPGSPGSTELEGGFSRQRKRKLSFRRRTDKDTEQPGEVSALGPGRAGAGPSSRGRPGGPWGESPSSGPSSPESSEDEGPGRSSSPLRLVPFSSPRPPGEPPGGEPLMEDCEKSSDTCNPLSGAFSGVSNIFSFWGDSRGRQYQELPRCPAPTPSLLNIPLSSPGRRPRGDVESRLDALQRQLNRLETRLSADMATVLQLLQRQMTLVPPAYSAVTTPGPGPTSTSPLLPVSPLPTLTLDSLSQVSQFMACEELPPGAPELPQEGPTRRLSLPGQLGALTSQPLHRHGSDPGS

Kp [1] | microsomal CLint at 1 μmol/L [2] [µL/min/mg] | IC50 (human mGluR5d) [nM] | Structure (SMILES) | HERG ionworks (HERG) [µM]
0.005 | < 12 | 47 | Cn1c(-c2ccc(=O)n(C)c2)nnc1N1CCC[C@@H]1c1cc(-c2cccc(Cl)c2)on1 [Example 31.7, 5-(5-{(R)-2-[5-(3-Chloro-phenyl)-isoxazol-3-yl]-pyrrolidin-1-yl}-4-methyl-4H-[1,2,4]triazol-3-yl)-1-methyl-1H-pyridin-2-one] | 23
0.11 | < 12 | 25 | Cn1c(-c2ccnnc2)nnc1N1CCC[C@@H]1c1cc(-c2cccc(Cl)c2)on1 [Example 31.8, 4-(5-{(R)-2-[5-(3-Chloro-phenyl)-isoxazol-3-yl]-pyrrolidin-1-yl}-4-methyl-4H-[1,2,4]triazol-3-yl)-pyridazine] | 16
0.035 | < 12 | 39 | Cn1c(-c2ccn(C)c(=O)c2)nnc1N1CCC[C@@H]1c1nnn(-c2cccc(Cl)c2)n1 [Example 31.11, 4-(5-{(R)-2-[2-(3-Chloro-phenyl)-2H-tetrazol-5-yl]-pyrrolidin-1-yl}-4-methyl-4H-[1,2,4]triazol-3-yl)-1-methyl-1H-pyridin-2-one] | 20
0.01 | < 12 | 50 | Cc1cccc(-c2cc([C@H]3CCCN3c3nnc(-c4ccn(C)c(=O)c4)n3C)no2)c1 [Example 31.19, 1-Methyl-4-{4-methyl-5-[(R)-2-(5-m-tolylisoxazol-3-yl)pyrrolidin-1-yl]-4H-[1,2,4]triazol-3-yl}-1H-pyridin-2-one] | 24

Reference: patent US7678796B2, “MGluR5 modulators I” (AstraZeneca AB, priority 2006, dated 2010)
